Tests used:
[1] = Distribution coefficient LogD7.4, shake-flask 1-octanol/MOPS buffer; type: physicochemical; details: octanol/water (MOPS buffer 10^–2 M), 25 °C, 3 h
Experimental: Solutions between 100 and 10 µM of the free ligands (cenz and onz) and the coordination compounds 3–10 were prepared in a MOPS buffer pH 7.4 as the aqueous phase and in 1-octanol as the organic phase. The absorption at 320 nm and 310 nm was determined for the aqueous and organic phase respectively by electronic spectroscopy (UV–Vis). Through a linear regression (concentration vs. absorption) the molar extinction coefficient of each compound in both phases was determined (Table 3). The lipophilicity was calculated in the 1-octanol/water system from the shake flask method using Eq. 1 [39]:1 […] where, Co is the final concentration in the organic phase and Cw is the final concentration in the aqueous phase (MOPS buffer at 10^–2 M pH 7.4). Both phases were presaturated with 50 µM solutions of the free ligands or 500 µM of each coordination compound and their UV spectrum was recorded. Both phases were combined and kept stirring for 3 h at 25 °C and in the absence of light. Subsequently, the mixture was centrifuged at 400g and the concentration in both phases was determined by UV–Vis spectroscopy using the Beer-Lambert law. The assays were performed in triplicate.
The T gondii parasite is an apicomplex organism; it requires a host cell to live, so it is important that the drugs used against the parasite have easy access to the cell. The lipophilicity of a compound is an important physicochemical property to determine its ability to permeate the biological membrane through passive diffusion; which usually is measured from the distribution coefficient logD7.4 = log(Co/Cw), in n-octanol/water. The shake-flask method was used to determine the LogD7.4 values from the molar extinction coefficients of the coordination compounds and the ligands in the two solvents (Table 3).

[2] = system: ct-DNA; experiment: Competitive displacement of Hoechst 33258 from DNA (fluorescence); type: binding, calf; details: Hoechst 33258 1.9 µM, [DNA]b = 30 µM, compound 0-50 µM, 1 h
Experimental: (§1) For the UV–Vis, fluorescence and circular dichroism assays the concentration of ct-DNA was determined on a Varian Cary 100 Scan spectrophotometer from the absorption at 260 nm and the corresponding molar absorptivity of 6600 M^−1 cm^−1 (nucleobase concentration). The stock solutions of the coordination compounds and the free ligands were prepared in cacodylate/NaCl buffer (1 mM cacodylic acid and 20 mM sodium chloride) at pH 7.25. The final samples contained a DMSO concentration of 0.2%.
Emission intensity of the dyes DNA-intercalator ethidium bromide, EB (λexc = 514 nm) and the minor-groove binder Hoechst 33,258 (λexc = 350 nm) was measured on iHR320 HORIBA JOBIN YVON spectrofluorometer. The samples contained 15 µM (in base pairs) of ct-DNA and 75 µM of EB […] in cacodylate/NaCl buffer. The respective dye was incubated for 30 min with ct-DNA to allow its binding to the biomolecule. Subsequently, increasing amounts of coordination compounds (0–50 µM) were added up to a final volume of 2 mL, and the samples were incubated for 1 h at 37 °C. The fluorescence spectra of all samples were recorded at room temperature. The affinity of the compounds for ct-DNA compared to EB was evaluated through the Stern–Volmer quenching constant Ksv, from Eq. 3:3 I0/I=1+Ksvcompound where I0 and I are the emission intensities in absence and the presence of the compound, respectively.
Competitive binding assays were carried out with Hoechst 33,258. This dye binds to B-DNA, especially those with an AT-rich sequence giving a fluorescent signal at 458 nm when excited at 350 nm. As for to the EB assays, DNA (30 µM) was incubated for 30 min with Hoechst 33,258 (1.9 µM) and increasing amounts of the coordination compounds were subsequently added. In all cases, fluorescence quenching was observed (Fig. 9). As previously, the Ksv constants were determined (Fig. 9c and Table 4). The copper(II) compounds show Ksv values in the […] range (Table 4), indicating a groove binding behavior. For the zinc(II) compounds, the Ksv values are two orders of magnitude lower indicating weaker interactions, must likely of electrostatic nature.

[3] = system: ct-DNA; experiment: Circular dichroism of ct-DNA; type: binding, calf; details: [DNA]b = 50 µM, [complex]/[DNA] 0-2, 1 h 37 °C
Experimental: as §1
Circular dichroism (CD) spectra were recorded using a JASCO-815 spectropolarimeter, equipped with xenon-arc lamp of 450 W. The sample compartment was air-purged with N2 before use. For the measurements, a quartz cuvette with an optical path of 5 mm was used. A solution of 25 µM (in base pairs) of ct-DNA in cacodylate/NaCl buffer was incubated for 1 h at 37 °C with increasing amounts of coordination compounds (0–50 µM). The CD spectra were recorded at room temperature.
The interaction of small molecules with DNA can modify these CD signals depending on the type of binding. Intercalative interactions increase the intensity of the signals, as the result of an increase of the stability of the B conformation, whereas groove binding or covalent interactions tend to decrease the intensity of these signals, which are moreover displaced. The CD spectra for both ligands and their copper(II) and zinc(II) complexes were obtained at constant concentration of ct-DNA, increasing the complex concentration up to two equivalents ([complex]/[DNA] ratios of 0, 0.2, 0.4, 1, 2) with respect to the nucleobases concentration ([DNA]b = 50 µM).

Row | SMILES | LogD7.4 [1] | Hoechst 33258 Ksv [2] | effect on CD spectrum of ct-DNA (bands at 275 and 245 nm) [3]
1 | Cc1ncc([N+](=O)[O-])n1CC(O)CCl.Cc1ncc([N+](=O)[O-])n1CC(O)CCl.[Cl-].[Cl-].[Cu+2] (stereo not drawn) [[Cu(onz)2Cl2]] | 0.61 | 1.2e+06 M⁻¹ | decrease of the intensity of the positive and negative bands
2 | Cc1ncc([N+](=O)[O-])n1CCCl.Cc1ncc([N+](=O)[O-])n1CCCl.[Cl][Cu][Cl] [[Cu(cenz)2Cl2]] | 0.69 | 1.6e+06 M⁻¹ | decrease of the intensity of the positive and negative bands
3 | Cc1ncc([N+](=O)[O-])n1CC(O)CCl.Cc1ncc([N+](=O)[O-])n1CC(O)CCl.[Cl][Zn][Cl] (stereo not drawn) [[Zn(onz)2Cl2]] | 0.90 | 38000 M⁻¹ | spectra changes are minor
4 | Cc1ncc([N+](=O)[O-])n1CCCl.Cc1ncc([N+](=O)[O-])n1CCCl.[Br][Zn][Br] [[Zn(cenz)2Br2]] | 0.82 | 120000 M⁻¹ | spectra changes are minor
5 | Cc1n(CC(O)CCl)c([N+](=O)[O-])c[n+]1[Cu-2]([Br])([Br])[n+]1cc([N+](=O)[O-])n(CC(O)CCl)c1C (stereo not drawn) [[Cu(onz)2Br2]] | 0.56 | 2.5e+06 M⁻¹ | decrease of the intensity of the positive and negative bands
6 | Cc1ncc([N+](=O)[O-])n1CCCl.Cc1ncc([N+](=O)[O-])n1CCCl.[Br][Cu][Br] [[Cu(cenz)2Br2]] | 0.62 | 2.1e+06 M⁻¹ | decrease of the intensity of the positive and negative bands

Reference: paper PMC11001709, “Anti-toxoplasma activity and DNA-binding of copper(II) and zinc(II) coordination compounds with 5-nitroimidazole-based ligands” (Journal of Biological Inorganic Chemistry, 2023)
